# According to patent US10183950B2, “Thienopyrimidine inhibitors of atypical protein kinase C” (Cancer Research Technology Limited, priority 2011, dated 2019):
# Biological target: T1, kinase-domain human PKCι (Homo sapiens, UniProt P41743)
# T1 construct: Recombinant, kinase-domain human PKCι is expressed and purified in-house; made in house
# T1 sequence (P41743 254-522 limits assumed): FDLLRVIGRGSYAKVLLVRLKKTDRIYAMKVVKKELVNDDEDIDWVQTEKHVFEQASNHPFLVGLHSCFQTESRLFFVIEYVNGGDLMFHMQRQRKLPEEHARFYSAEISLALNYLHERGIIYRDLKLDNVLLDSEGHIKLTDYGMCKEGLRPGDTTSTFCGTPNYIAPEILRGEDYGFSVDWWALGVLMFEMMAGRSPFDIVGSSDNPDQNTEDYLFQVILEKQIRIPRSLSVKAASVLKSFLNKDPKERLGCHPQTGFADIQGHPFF
# Test: PKCι IC50 IMAP fluorescence polarisation assay, kinase-domain enzyme
# Type: biochemical
# Conditions: kinase domain PKCi at 2 μM ATP; read-out: IC50 in IMAP assay against kinase domain PKCi
# Protocol: Assays are based on the ability of PKCι to phosphorylate a commercially available peptide substrate in vitro. […] Recombinant, full-length human PKCι expressed in Sf21 insect cells is also commercially available. Recombinant, kinase-domain human PKCι is expressed and purified in-house.
# The procedure below explains how dose response curves for inhibitors of PKCι are obtained.
# Compounds to be tested are dissolved in 100% DMSO. […] 1 μl is plated into 384 well black low-binding flat bottomed assay plates which are used immediately. Dilutions and additions of compound to assay plates are carried out using Matrix WellMate® and Matrix PlateMate® Plus liquid handling systems.
# The final concentration of peptide substrate in the assay is 100 nM. […] Relevant controls are included, namely no compound and no enzyme. […] The reaction is allowed to incubate for 60 minutes at room temperature, before the reaction is stopped and developed by the addition of 20 μl IMAP™ development reagent (Molecular Devices). IMAP development reagent consists of 0.25% (v/v) IMAP progressive binding reagent, 17% (v/v) IMAP progressive binding buffer A and 3% (v/v) IMAP progressive binding buffer B. The plates are then incubated for 2 hours at room temperature before being read using an appropriate plate reader, for example a Molecular Devices HT Analyst or a BMG Pherastar.
row,IC50 [µM],Structure (SMILES)
1,10 to 40,"C[C@@H](N)CNc1nc(-c2ccncc2)nc2cc(-c3ccc(C(C)(C)C)cc3)sc12 [compound 358, (R)-N*1*-[6-(4-tert-Butyl-phenyl)-2-pyridin-4-yl-thieno[3,2-d]pyrimidin-4-yl]-propane-1,2-diamine]"
2,1 to 10,"Cc1cc(C)c2c(n1)sc1c(N3CCCNCC3)nc(-c3ccncc3)nc12 [compound 381, 4-[1,4]Diazepan-1-yl-7,9-dimethyl-2-pyridin-4-yl-pyrido[3′,2′:4,5]thieno[3,2-d]pyrimidine]"
3,10 to 40,"N[C@@H](COc1nc(-c2ccncc2)nc2c1sc1cccc(Cl)c12)Cc1ccccc1 [compound 477, (R)-1-(9-Chloro-2-pyridin-4-yl-benzo[4,5]thieno[3,2-d]pyrimidin-4-yloxymethyl)-2-phenyl-ethylamine]"
4,1 to 10,"Cc1csc2c(NC[C@@H](C)N)nc(-c3ccncc3)nc12 [compound 369, (R)-N*1*-(7-Methyl-2-pyridin-4-yl-thieno[3,2-d]pyrimidin-4-yl)-propane-1,2-diamine]"
5,10 to 40,"C[C@H](N)CNc1nc(-c2ccncc2)nc2cc(C(C)(C)C)sc12 [compound 307, (S)-N*1*-(6-tert-Butyl-2-pyridin-4-yl-thieno[3,2-d]pyrimidin-4-yl)-propane-1,2-diamine]"

# Same assay, conditions: kinase domain PKCi at 2 μM ATP; read-out: IC50 in IMAP assay against kinase domain PKCi (Activity)
row,IC50 [µM],Structure (SMILES)
1,1 to 10,"C[C@@H](N)CNc1nc(-c2cn[nH]c2)nc2sc3c(c12)CCCC3 [compound 188, (R)-N*1*-[2-(1H-Pyrazol-4-yl)-5,6,7,8-tetrahydro-benzo[4,5]thieno[2,3-d]pyrimidin-4-yl]-propane-1,2-diamine]"
2,1 to 10,"c1cc(-c2nc(O[C@H]3CCNC3)c3c4c(sc3n2)CCCC4)ccn1 [compound 140, 2-Pyridin-4-yl-4-((S)-pyrrolidin-3-yloxy)-5,6,7,8-tetrahydro-benzo[4,5]thieno[2,3-d]pyrimidine]"
3,0.1 to 1,"c1n[nH]cc1-c1nc(N2CCNCC2)c2c3c(sc2n1)CCCC3 [compound 185, 4-Piperazin-1-yl-2-(1H-pyrazol-4-yl)-5,6,7,8-tetrahydro-benzo[4,5]thieno[2,3-d]pyrimidine]"
4,1 to 10,"N[C@H](COc1nc(-c2ccncc2)nc2sc3c(c12)CCCC3)C1CCCCC1 [compound 156, (S)-1-cyclohexyl-2-(2-pyridin-4-yl-5,6,7,8-tetrahydro-benzo[4,5]thieno[2,3-d]pyrimidin-4-yloxy)-ethylamine]"
5,1 to 10,"N[C@@H](COc1nc(-c2ccncc2)nc2sc3c(c12)CCCC3)Cc1cccc2ccccc12 [compound 173, (R)-1-Naphthalen-1-ylmethyl-2-(2-pyridin-4-yl-5,6,7,8-tetrahydro-benzo[4,5]thieno[2,3-d]pyrimidin-4-yloxy)-ethylamine]"
6,10 to 40,"N[C@H](COc1nc(-c2ccncc2)nc2sc3c(c12)CCCC3)Cc1c[nH]c2ccccc12 [compound 158, (S)-2-(1H-Indol-3-yl)-1-(2-pyridin-4-yl-5,6,7,8-tetrahydro-benzo[4,5]thieno[2,3-d]pyrimidin-4-yloxymethyl)-ethylamine]"
7,1 to 10,"Cc1ccc(C[C@H](N)COc2nc(-c3ccncc3)nc3sc4c(c23)CCCC4)cc1 [compound 166, (S)-1-(4-Methyl-benzyl)-2-(2-pyridin-4-yl-5,6,7,8-tetrahydro-benzo[4,5]thieno[2,3-d]pyrimidin-4-yloxy)-ethylamine]"
8,10 to 40,"CC(C)[C@@H](N)COc1nc(-c2ccncc2)nc2sc3c(c12)CCCC3 [compound 148, (R)-2-Methyl-1-(2-pyridin-4-yl-5,6,7,8-tetrahydro-benzo[4,5]thieno[2,3-d]pyrimidin-4-yloxymethyl)-propylamine]"
9,1 to 10,"N[C@H](COc1nc(-c2ccncc2)nc2sc3c(c12)CCCC3)Cc1cccs1 [compound 168, (S)-2-(2-Pyridin-4-yl-5,6,7,8-tetrahydro-benzo[4,5]thieno[2,3-d]pyrimidin-4-yloxy)-1-thiophen-2-ylmethyl-ethylamine]"
10,10 to 40,"N[C@@H](COc1nc(-c2ccncc2)nc2sc3c(c12)CCCC3)Cc1cccs1 [compound 170, (R)-2-(2-Pyridin-4-yl-5,6,7,8-tetrahydro-benzo[4,5]thieno[2,3-d]pyrimidin-4-yloxy)-1-thiophen-2-ylmethyl-ethylamine]"
11,1 to 10,"N[C@H](COc1nc(-c2ccncc2)nc2sc3c(c12)CCCC3)Cc1cccc2ccccc12 [compound 161, (S)-1-Naphthalen-1-ylmethyl-2-(2-pyridin-4-yl-5,6,7,8-tetrahydro-benzo[4,5]thieno[2,3-d]pyrimidin-4-yloxy)-ethylamine]"
12,1 to 10,"Cc1n[nH]c(C)c1-c1nc(NC[C@H](C)N)c2c3c(sc2n1)CCCC3 [compound 192, (S)-N*1*-[2-(3,5-Dimethyl-1H-pyrazol-4-yl)-5,6,7,8-tetrahydro-benzo[4,5]thieno[2,3-d]pyrimidin-4-yl]-propane-1,2-diamine]"

# Further lines, the molecule ahead of its results:
row,Structure (SMILES),IC50 [µM]
1,"CNCCOc1nc(-c2ccncc2)nc2sc3c(c12)CCCC3 [compound 137, Methyl-[2-(2-pyridin-4-yl-5,6,7,8-tetrahydro-benzo[4,5]thieno[2,3-d]pyrimidin-4-yloxy)-ethyl]-amine]",1 to 10
2,"CCCCN1CCN(c2nc(-c3ccncc3)nc3sc4c(c23)CCCC4)CC1 [compound 129, 4-(4-Butyl-piperazin-1-yl)-2-pyridin-4-yl-5,6,7,8-tetrahydro-benzo[4,5]thieno[2,3-d]pyrimidine]",10 to 40
3,"CC(C)CN1CCN(c2nc(-c3ccncc3)nc3sc4c(c23)CCCC4)CC1 [compound 134, 4-(4-Isobutyl-piperazin-1-yl)-2-pyridin-4-yl-5,6,7,8-tetrahydro-benzo[4,5]thieno[2,3-d]pyrimidine]",10 to 40
4,"c1ccc(CN2CCN(c3nc(-c4ccncc4)nc4sc5c(c34)CCCC5)CC2)nc1 [compound 120, 2-Pyridin-4-yl-4-(4-pyridin-2-ylmethyl-piperazin-1-yl)-5,6,7,8-tetrahydro-benzo[4,5]thieno[2,3-d]pyrimidine]",10 to 40
5,"CN(C)CCOc1nc(-c2ccncc2)nc2sc3c(c12)CCCC3 [compound 135, dimethyl-[2-(2-pyridin-4-yl-5,6,7,8-tetrahydro-benzo[4,5]thieno[2,3-d]pyrimidin-4-yloxy)-ethyl]-amine]",1 to 10
6,"Cc1csc2nc(-c3ccncc3)nc(N3CCNCC3)c12 [compound 94, 5-Methyl-4-piperazin-1-yl-2-pyridin-4-yl-thieno[2,3-d]pyrimidine]",< 0.1
7,"CCc1cc2c(NC[C@@H](C)N)nc(-c3ccncc3)nc2s1 [compound 35, (R)-N*1*-(6-Ethyl-2-pyridin-4-yl-thieno[2,3-d]pyrimidin-4-yl)-propane-1,2-diamine]",1 to 10
8,NCCOc1nc(-c2ccncc2)nc2sc3c(c12)CCCC3 [compound 136],0.1 to 1
9,"Clc1cccc(CN2CCN(c3nc(-c4ccncc4)nc4sc5c(c34)CCCC5)CC2)c1 [compound 124, 4-[4-(3-Chloro-benzyl)-piperazin-1-yl]-2-pyridin-4-yl-5,6,7,8-tetrahydro-benzo[4,5]thieno[2,3-d]pyrimidine]",10 to 40
10,"Cc1csc2nc(-c3ccncc3)nc(N3CCCNCC3)c12 [compound 95, 4-[1,4]Diazepan-1-yl-5-methyl-2-pyridin-4-yl-thieno[2,3-d]pyrimidine]",0.1 to 1
11,"CC1CCc2c(sc3nc(-c4ccncc4)nc(NC[C@@H](N)Cc4ccccc4)c23)C1 (stereo partly drawn) [compound 69, (S)-N*1*-(7-Methyl-2-pyridin-4-yl-5,6,7,8-tetrahydro-benzo[4,5]thieno[2,3-d]pyrimidin-4-yl)-3-phenyl-propane-1,2-diamine]",0.1 to 1
12,"FC(F)(F)c1ccc(CN2CCN(c3nc(-c4ccncc4)nc4sc5c(c34)CCCC5)CC2)cc1 [compound 121, 2-Pyridin-4-yl-4-[4-(4-trifluoromethyl-benzyl)-piperazin-1-yl]-5,6,7,8-tetrahydro-benzo[4,5]thieno[2,3-d]pyrimidine]",10 to 40
13,"c1ccc(CCN2CCN(c3nc(-c4ccncc4)nc4sc5c(c34)CCCC5)CC2)cc1 [compound 132, 4-(4-Phenethyl-piperazin-1-yl)-2-pyridin-4-yl-5,6,7,8-tetrahydro-benzo[4,5]thieno[2,3-d]pyrimidine]",10 to 40
14,"C[C@@H](N)CNc1nc(-c2ccncc2)nc2sc3c(c12)CCCC3 [compound 2, (R)-N*1*-(2-Pyridin-4-yl-5,6,7,8-tetrahydro-benzo[4,5]thieno[2,3-d]pyrimidin-4-yl)-propane-1,2-diamine]",0.1 to 1
15,"Cc1c(C(N)=O)sc2nc(-c3ccncc3)nc(NC[C@@H](N)Cc3ccccc3)c12 [compound 74, 4-((S)-2-Amino-3-phenyl-propylamino)-5-methyl-2-pyridin-4-yl-thieno[2,3-d]pyrimidine-6-carboxylic acid amide]",0.1 to 1
